Test results reported in publication PMC8330795, “In silico identification and experimental validation of cellular uptake by a new cell penetrating peptide P1 derived from MARCKS” (Drug Delivery, 2021).

How the values were obtained:
BV2 cells = experiment: Cellular uptake of FITC-labeled peptide, fluorescence microscopy and lysate fluorescence; type: cell-based, mouse; settings: FITC-labeled peptide 5 μM
Method: (§1) Cells were suspended in regular culture media and seeded on coverslip in a 24-well plate at a concentration of 1.6 × 10^4 cells/well. Rinsing with PBS twice after 24 h of incubation for cell attachment, FITC-labeled peptides at indicated concentrations were added with 0.5 ml serum-free media/well and incubated for 1 hour at 37 °C. After incubation, the cells were washed with PBS at least three times. 4′,6-diamidino-2-phenylindole (DAPI) was added to each well and incubated for 5 min after fixation with 4% paraformaldehyde (PFA) in PBS. The cells were washed with PBS, mounted on the slide, and observed by fluorescence microscopy (Nikon, Tokyo, Japan).
(§2) To analyze the internalization efficiency of CPP, the fluorescence of cell lysates and supernatants was measured using TECAN Safire multi-well reader with excitation and emission wavelengths set to 485 nm and 535 nm, following the protocol published (Wang et al., [2010]; Ma et al., [2015]; Wang et al., [2016]; [2016]; Zhou et al., [2017]; Shao et al., [2016]; Zhang et al., [2019]; Geng et al., [2020]). After the cell incubation with peptide and washing step described above, cells were lysed with 300 µl lysis buffer (0.1 M NaOH) for 10 minutes and centrifuged at 800 rpm for 5 minutes. Fluorescence in the 50 µl supernatant transferred to a 96-well plate was monitored by the plate-reader spectrophotometer (Tecan, Mannedorf, Switzerland). […]

HSC-T6 cells [1] = experiment: as above; type: cell-based, rat
Method: Cells were suspended in regular culture media and seeded on coverslip in a 24-well plate at a concentration of 1.6 × 10^4 cells/well. Rinsing with PBS twice after 24 h of incubation for cell attachment, FITC-labeled peptides at indicated concentrations were added with 0.5 ml serum-free media/well and incubated for 1 hour at 37 °C. After incubation, the cells were washed with PBS at least three times. 4′,6-diamidino-2-phenylindole (DAPI) was added to each well and incubated for 5 min after fixation with 4% paraformaldehyde (PFA) in PBS. The cells were washed with PBS, mounted on the slide, and observed by fluorescence microscopy (Nikon, Tokyo, Japan). To analyze the internalization efficiency of CPP, the fluorescence of cell lysates and supernatants was measured using TECAN Safire multi-well reader with excitation and emission wavelengths set to 485 nm and 535 nm, following the protocol published (Wang et al., [2010]; Ma et al., [2015]; Wang et al., [2016]; [2016]; Zhou et al., [2017]; Shao et al., [2016]; Zhang et al., [2019]; Geng et al., [2020]). After the cell incubation with peptide and washing step described above, cells were lysed with 300 µl lysis buffer (0.1 M NaOH) for 10 minutes and centrifuged at 800 rpm for 5 minutes. Fluorescence in the 50 µl supernatant transferred to a 96-well plate was monitored by the plate-reader spectrophotometer (Tecan, Mannedorf, Switzerland). The amount of FITC-labeled peptides internalized were normalized by protein concentration, and the experiments indicated were repeated at least three times.

BV2 = experiment: Peptide-mediated transfection of pdsRed plasmid, RFP expression; type: cell-based, mouse; settings: BV2, 80:1 group
Method: HSC-T6, BV2 and MCF7 cells (4 × 10^4 cells/well) were seeded onto 24-well plates 24 h before the experiment. Cells were incubated with CPP-P1/pDNA complexes at indicated N/P ratios for 4 hrs in serum-free media, and then were incubated for 24 h or 48 h after adding media with 10% serum. Live cell imaging under fluorescence microscope was carried out to estimate peptide-based transfection efficiency. Cells transfected with TurboFectin (OriGene, Beijing, China) were used as positive transfection reagent.

Mouse erythrocytes = experiment: Hemolysis assay; type: cell-based; settings: mouse erythrocytes in PBS, 37 °C, 2 h, absorbance 450 nm; 0.1% Triton X-100 positive control
Method: Mouse erythrocytes free of plasma components were separated by centrifugation at 1000 rpm for 5 minutes and washed three times with PBS. The washed mouse erythrocytes were resuspended in PBS and treated with indicated concentrations of peptides at 37 °C for 2 h. Hemolysis was examined by measuring the absorbance of supernatant at the wavelength of 450 nm, and 0.1% Triton X-100 was used as a positive control.

HSC-T6 cells [2] = test system: HSC-T6 cells
Method: Cytotoxicity was measured using MTT assay. Grown cells were inoculated for 24 h at a density of 10000 cells/well in 96-well plates. After washing with PBS, the indicated concentrations of peptides were added, following by further incubation for 24 h or 48 h. After at least two-times washing, 5 mg/ml MTT dissolved in PBS with serum-free media was added into plates for another 4 h incubation. Dimethyl sulfoxide (DMSO) was added into plates and incubated at 37 °C for 15–30 minutes to dissolve the formazan crystals. The absorbance of aliquot from each well was measured at 490 nm using a Multiskan Spectrum (Thermo Fisher Scientific, Waltham, MA, USA) microplate reader. Experiments were repeated three times.

MCF7 = experiment: Cellular uptake of FITC-labeled peptide, fluorescence microscopy and lysate fluorescence; type: cell-based, human; settings: FITC-labeled peptide 5 μM; MCF7 compared with other cell lines
Method: as §1, §2

KKKKKRFSFKKSFKLSGFSFKKNKK [P1] was tested, and the “penetration into hard-to-translocate cells” value (BV2 cells) was “could enter into hard-to-translocate BV2 cells in significant amount”, the “penetration efficiency with chloroquine (CQ)” value (HSC-T6 cells [1]; 100 μM CQ, fluorescent quantification, Figure S6, cell line not stated at place) was “no obvious effect” and the “fluorescence of peptide versus incubation time” value (HSC-T6 cells [1]; FITC-labeled peptide 5 μM, after 1 hour treatment, longer incubation times, images and fluorescence quantification) was “significantly decreased as incubation time increased”. The “penetration property versus peptide concentration” value (HSC-T6 cells [1]; FITC-labeled peptide, 1 hour, 37 °C, serum-free media, fluorescence normalized with protein concentration) was “concentration dependent”, the “penetration efficiency with sucrose” value (HSC-T6 cells [1]; peptide 5 μM with 0.3 M and 0.6 M sucrose, cell line not stated at place) was “inhibited” and the “penetration efficiency with penetration enhancer DMSO” value (HSC-T6 cells [1]; peptide 5 μM with 5% DMSO (2.5% and 5% tested), cell line not stated at place) was “enhanced”. The “penetration efficiency at low temperature” value (HSC-T6 cells [1]; peptide 5 μM, 25 °C and 4 °C compared to 37 °C) was “significantly inhibited”, the “uptake inhibited by endocytosis inhibitors” value (HSC-T6 cells [1]; peptide 5 μM, same inhibitor list, inhibitor giving this value not specified) was “about 20%” and the “penetration efficiency compared with other published CPPs” value (HSC-T6 cells [1]; peptides 5 μM, FITC-labeled, versus MT23 and TAT, cell line not stated at place) was “higher penetration efficiency than MT23 and TAT”. For the same sequence, the “RFP expression at N/P 80:1” value (BV2) was “could not find RFP positive cells”, the “hemolysis of red blood cells” value (Mouse erythrocytes) was “minimally perturbed” and the “cytotoxicity, MTT assay” value (HSC-T6 cells [2]) was “did not find significant cytotoxicity”. For the same sequence, the “penetration efficiency in different cell lines” value (MCF7) was “higher penetration efficiency in MCF7”.
